This note sets out measurements from patent publication US12673041B2, “4-aminobut-2-enamide derivatives and salt thereof” (TAIHO PHARMACEUTICAL CO., LTD., priority 2019, dated 2026).

Test [1] addresses Gppcp-bound recombinant K-Ras4B G12C mutant protein (amino acids 1-169, C51S/C80L/C118S) (Homo sapiens, UniProt P01116, C118S/C51S/C80L/G12C). In words: KRASG12C binding assay (LC-MS compound binding rate). The settings on record: test compound final concentration 0.5 μM, 25° C., 1 hour. Put shortly: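 Gppcp-bound K-Ras4B G12C (aa 1-169, C51S/C80L/C118S) at 50 nM in 1×TBS, 0.1 mM TCEP, 0.25 mM MgCl2, 50 μM Gppcp was incubated 1 hour at 25° C with compound at 0.5 μM final. Intact-protein LC-MS gave binding rate as single-adduct signal over total KRAS signal, graded A (≥80%) to E (<20%).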

For test [2], the target named is T1, GMPPNP-bound KRAS G12C protein and cRAF RAS-binding domain (cRAF-RBD) (Homo sapiens, UniProt P01116, G12C).
T1 construct: made in house; host or cells: E. coli
In words: Inhibitory activity on interaction between KRAS G12C and cRAF (Alpha technology). Format: biochemical. The settings on record: GMPPNP-bound KRAS G12C incubated with compound at 25° C. for 1 hour, then cRAF-RBD, Alpha signal; read-out: IC50. In outline: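 GMPPNP-loaded His-KRAS G12C (aa 1-169) preincubated 1 h at 25 °C with compound (pH 7.5 Tris, 1 mM MgCl2, TCEP, Tween 20), then cRAF-RBD (aa 50-132) and Alpha reagents added for 1.5 h at RT. Inhibition scaled between DMSO (0%) and GDP-bound KRAS (100%); IC50 by curve fitting.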

Another test has as its system MIA PaCa-2 cells. In words: Growth inhibition activity on KRAS-G12C mutant cell line (MIA PaCa-2). Format: cell-based. The settings on record: Homo sapiens, 72 h; MIA PaCa-2, 3-day culture, CellTiter-Glo 3D. How it is done: MIA PaCa-2 cells (given by Sumitomo Dainippon Pharma Co., Ltd.), which are a KRAS-G12C mutant human pancreas cancer cell line, were suspended in a 10% fetal bovine serum-containing RPMI1640 medium (manufactured by Fujifilm Wako Pure Chemical Corporation.). The cell suspension was seeded into each well of a 384-well U bottom microplate and cultured in an incubator containing 5% CO2 gas at 37° C. for 1 day. The compounds obtained in the “Preparation of Compounds” section were used as test compounds and were dissolved in DMSO, respectively, and each test compound was diluted with DMSO to give a concentration 500 times the final concentration. The resultant solution of the test compound in DMSO was diluted with the medium used for suspending cells and added to each well of the cell-culture plate to give a DMSO final concentration of 0.2%, followed by culture in an incubator containing 5% CO2 gas at 37° C. for another 3 days. The cell count after 3-day culture in the presence of the test compound was measured using CellTiter-Glo 3D Reagent (manufactured by Promega Corporation). All wells were added with CellTiter-Glo 3D Reagent and mixed for 10 minutes. 30 minutes after mixing, luminescence was measured by a plate reader. The growth inhibition rate was calculated from the following equation, and the concentration of the test compound at which 50% inhibition was achieved (IC50 (nM)) was determined. […] Growth Inhibition Rate (%)=(C−T)/(C)×100 • T: the emission intensity in a well into which a test compound was added. • C: the emission intensity in a well into which a test compound was not added.
(Cellular ATP, detected with luciferase, serves as a proxy for viable cell number.)

As for `CO[C@H]1CC[C@H](NC/C=C/C(=O)Nc2ccc(C(=O)c3ccc4c(-c5c(Cl)cc6c(ncn6C)c5Cl)cccn34)cc2C#N)CC1` (single isomer, unassigned) [Example 62, (E)-N-(2-cyano-4-(8-(4,6-dichloro-1-methyl-1H-benzo[d]imidazol-5-yl)indolizine-3-carbonyl)phenyl)-4-(((1r,4r)-4-methoxycyclohexyl)amino)but-2-enamide], in test [1], the binding rate result was “A (A binding rate of 80% or more is rated “A”)”. Further, the IC50 – broadly, the concentration needed to halve the response being measured – in test [2] amounted to 57 nM; in the test on MIA PaCa-2 cells, 43 nM.
Regarding `CO[C@H]1CC[C@H](NC/C=C/C(=O)Nc2ccc(C(=O)Nc3cccc(-c4cc5nc6n(c5cc4C)CCC6)n3)cc2C#N)CC1` [Example 3, 3-cyano-4-((E)-4-(((1r,4r)-4-methoxycyclohexyl)amino)but-2-enamido)-N-(6-(7-methyl-2,3-dihydro-1H-benzo[d]pyrrolo[1,2-a]imidazol-6-yl)pyridin-2-yl)benzamide], the binding rate result in test [1] is “B (a binding rate of 60% or more and less than 80% is rated “B”)”. Moreover, the half-maximal inhibitory concentration (IC50) in test [2] is 50 nM; in the test on MIA PaCa-2 cells it was 83 nM.
As to `Cc1cc2c(cc1-c1cccn3c(C(=O)c4ccc(NC(=O)/C=C/CNC(C)(C)C)c(C#N)c4)ccc13)ncn2C` [Example 5, (E)-4-(tert-butylamino)-N-(2-cyano-4-(8-(1,6-dimethyl-1H-benzo[d]imidazol-5-yl)indolizine-3-carbonyl)phenyl)but-2-enamide], the binding rate result in test [1] is on record as “A (A binding rate of 80% or more is rated “A”)”. The 50% inhibitory concentration (IC50) in test [2] came to 29 nM; with MIA PaCa-2 cells it was 80 nM.
In the same order, the values of `CO[C@H]1CC[C@H](NC/C=C/C(=O)Nc2ccc(C(=O)c3ccc4c(-c5cc6ncn(C)c6cc5C(F)(F)F)cccn34)cc2C#N)CC1` [Example 6, (E)-N-(2-cyano-4-(8-(1-methyl-6-(trifluoromethyl)-1H-benzo[d]imidazol-5-yl)indolizine-3-carbonyl)phenyl)-4-(((1r,4r)-4-methoxycyclohexyl)amino)but-2-enamide] are “A (A binding rate of 80% or more is rated “A”)”, 15 nM and 43 nM.
In the same order, the values of `CO[C@H]1CC[C@H](NC/C=C/C(=O)Nc2ccc(C(=O)c3ccc4c(-c5cc6nc(C)n(C)c6cc5C(F)(F)F)cccn34)cc2C#N)CC1` [Example 7, (E)-N-(2-cyano-4-(8-(1,2-dimethyl-6-(trifluoromethyl)-1H-benzo[d]imidazol-5-yl)indolizine-3-carbonyl)phenyl)-4-(((1r,4r)-4-methoxycyclohexyl)amino)but-2-enamide] are “A (A binding rate of 80% or more is rated “A”)”, 35 nM and 49 nM.
In the same order, the values of `CO[C@H]1CC[C@H](NC/C=C/C(=O)Nc2ccc(C(=O)c3c[nH]c4c(-c5cc6ncn(C)c6cc5C(F)(F)F)cccc34)cc2C#N)CC1` [Example 8, (E)-N-(2-cyano-4-(7-(1-methyl-6-(trifluoromethyl)-1H-benzo[d]imidazol-5-yl)-1H-indole-3-carbonyl)phenyl)-4-(((1r,4r)-4-methoxycyclohexyl)amino)but-2-enamide] are “A (A binding rate of 80% or more is rated “A”)”, 19 nM and 52 nM.
On to `CO[C@H]1CC[C@H](NC/C=C/C(=O)Nc2ccc(C(=O)c3cnc4c(-c5cc6ncn(C)c6cc5C)cccn34)cc2C#N)CC1` [Example 9, (E)-N-(2-cyano-4-(8-(1,6-dimethyl-1H-benzo[d]imidazol-5-yl)imidazo[1,2-a]pyridine-3-carbonyl)phenyl)-4-(((1r,4r)-4-methoxycyclohexyl)amino)but-2-enamide], for which the binding rate result in test [1] is “B (a binding rate of 60% or more and less than 80% is rated “B”)”. Further, the values for the IC50 (in test [2]; with MIA PaCa-2 cells) were 66 nM and 100 nM, respectively.
As for `CCc1nc2cc(-c3cccc4c3CCN4C(=O)c3ccc(NC(=O)/C=C/CN[C@H]4CC[C@H](N5CCCC5)CC4)c(C#N)c3)c(C(F)(F)F)cc2n1C` [Example 29, (E)-N-(2-cyano-4-(4-(2-ethyl-1-methyl-6-(trifluoromethyl)-1H-benzo[d]imidazol-5-yl)indoline-1-carbonyl)phenyl)-4-(((1r,4r)-4-(pyrrolidin-1-yl)cyclohexyl)amino)but-2-enamide], the binding rate result in test [1] is reported as “A (A binding rate of 80% or more is rated “A”)”. The IC50 was found to be 95 nM in test [2] and 410 nM with MIA PaCa-2 cells.
`CO[C@H]1CC[C@H](NC/C=C/C(=O)Nc2ccc(C(=O)c3ccc4c(-c5c(Cl)ncn5C(C)C)cccn34)cc2C#N)CC1` [Example 74, (E)-N-(4-(8-(4-chloro-1-isopropyl-1H-imidazol-5-yl)indolizine-3-carbonyl)-2-cyanophenyl)-4-(((1r,4r)-4-methoxycyclohexyl)amino)but-2-enamide]: the binding rate entry in test [1] was “B (a binding rate of 60% or more and less than 80% is rated “B”)”. In addition, the IC50 in test [2] was found to be 170 nM.
`CO[C@H]1CC[C@H](NC/C=C/C(=O)Nc2ccc(C(=O)c3ccc4c(-c5cc6nn(C)cc6cc5C)cccn34)cc2C#N)CC1` [Example 75, (E)-N-(2-cyano-4-(8-(2,5-dimethyl-2H-indazol-6-yl)indolizine-3-carbonyl)phenyl)-4-(((1r,4r)-4-methoxycyclohexyl)amino)but-2-enamide]: the binding rate result in test [1] is given as “A (A binding rate of 80% or more is rated “A”)”. Further, the IC50 in test [2] is 150 nM.
For the compound `CO[C@H]1CC[C@H](NC/C=C/C(=O)Nc2ccc(C(=O)c3ccc4c(-c5cc6cn(C)nc6cc5C)cccn34)cc2C#N)CC1` [Example 76, (E)-N-(2-cyano-4-(8-(2,6-dimethyl-2H-indazol-5-yl)indolizine-3-carbonyl)phenyl)-4-(((1r,4r)-4-methoxycyclohexyl)amino)but-2-enamide], in test [1], the binding rate entry is listed as “A (A binding rate of 80% or more is rated “A”)”. Further, the IC50 in test [2] came to 130 nM.
In the case of `Cn1cnc2cc(-c3cccn4c(C(=O)c5ccc(NC(=O)/C=C/CNC(C)(C)C)c(Cl)c5)ccc34)c(C(F)(F)F)cc21` [Example 77, (E)-4-(tert-butylamino)-N-(2-chloro-4-(8-(1-methyl-6-(trifluoromethyl)-1H-benzo[d]imidazol-5-yl)indolizine-3-carbonyl)phenyl)but-2-enamide], the binding rate result in test [1] is “C (a binding rate of 40% or more and less than 60% is rated “C”)”. Further, the IC50 in test [2] worked out at 330 nM.
Regarding `CO[C@H]1CC[C@H](NC/C=C/C(=O)Nc2ccc(C(=O)c3ccc4c(-c5ccc6nn(C)c(Cl)c6c5Cl)cccn34)cc2C#N)CC1` [Example 79, (E)-N-(2-cyano-4-(8-(3,4-dichloro-2-methyl-2H-indazol-5-yl)indolizine-3-carbonyl)phenyl)-4-(((1r,4r)-4-methoxycyclohexyl)amino)but-2-enamide], the binding rate entry in test [1] was “A (A binding rate of 80% or more is rated “A”)”. The half-maximal inhibitory concentration (IC50) in test [2] worked out at 440 nM.
In the same order, the values of `CO[C@H]1CC[C@H](NC/C=C/C(=O)Nc2ccc(C(=O)c3ccc4c(-c5c(C)cc6c(ncn6C)c5-c5cccnc5)cccn34)cc2C#N)CC1` [Example 82, (E)-N-(2-cyano-4-(8-(1,6-dimethyl-4-(pyridin-3-yl)-1H-benzo[d]imidazol-5-yl)indolizine-3-carbonyl)phenyl)-4-(((1r,4r)-4-methoxycyclohexyl)amino)but-2-enamide] are “A (A binding rate of 80% or more is rated “A”)” and 150 nM.
In the same order, the values of `CO[C@H]1CC[C@H](NC/C=C/C(=O)Nc2ccc(C(=O)c3c[nH]c4c(-c5cc6ncn(C)c6cc5C(F)(F)F)cccc34)c(F)c2)CC1` [Example 83, (E)-N-(3-fluoro-4-(7-(1-methyl-6-(trifluoromethyl)-1H-benzo[d]imidazol-5-yl)-1H-indole-3-carbonyl)phenyl)-4-(((1r, 4r)-4-methoxycyclohexyl)amino)but-2-enamide] are “A (A binding rate of 80% or more is rated “A”)” and 440 nM.
